Assay results from article PMC5634595, “Properties of halogenated and sulfonated porphyrins relevant for the selection of photosensitizers in anticancer and antimicrobial therapies” (PLoS ONE, 2017).
Read-outs that look alike come from different tables or passages of the source.

Experiments:
[1] = design: method as in earlier work; conditions: non-halogenated standard, in toluene; cited from earlier work
[2] = UV/Vis absorption spectra, molar absorption coefficients; format: physicochemical; conditions: EtOH; for Absorption λmax, B(0,0): Soret band
Description: All commercial chemicals and reagents were of analytical grade and were purchased from Sigma-Aldrich. UV/Vis absorption spectra were recorded in a Hewlett Packard HP8453 spectrophotometer. Solutions containing samples of photosensitizers were dissolved in the selected solvent in quartz cuvettes. Using measured absorbance for various concentrations of porphyrin in ethanol, the molar absorption coefficients were determined from Beer’s law.

[3] = Fluorescence emission and fluorescence quantum yield (comparative method); format: physicochemical; conditions: EtOH, TPP as standard
Description: (§1) Fluorescence emission spectra were recorded from 550 nm to 750 nm with excitation at Soret band (λ≈420 nm). The excitation and emission slits were both set to 8 nm and scanning speed to 50 nm/min. Fluorescence spectra were recorded with a Perkin Elmer Fluorescence Spectrometer LS 55. Determination of fluorescence quantum yields: ΦF of studied photosensitizers was determined using the comparative method according to the equation: ΦF=ΦFStd⋅FAStdn^2/FStdAnStd2, (1) where F and FStd are the areas under the fluorescence emission curves of the sample and the standard, A and AStd are the absorbance of the sample and the standard and n are the refractive indices of the solvent used for the sample and the standard, respectively. Commercially available tetraphenylporphyrin TPP (Std) (ΦF = 0.10 in toluene) was employed as the standard. The absorbance of the solutions at the excitation wavelength was in the range of 0.02. Singlet oxygen quantum yields were determined based on the relative phosphorescence emissions of singlet oxygen generated by a reference and by each one of the porphyrins, using a method described elsewhere. Briefly, a modified Applied Photophysics LKS.60 flash photolysis spectrometer with a Hamamatsu NIR photomultiplier for detection and HP Infinium (500 MHz, 1GSas^-1) or Tektronix DPO 7254 (2.5 GHz, 40GSas^-1) oscilloscopes were used. The adaptation of this spectrometer allowed for the detection of singlet oxygen phosphorescence at room temperature. This emission was detected using a Hamamatsu R5509–42 photomultiplier, cooled to 193 K in a liquid nitrogen chamber. […] The modification of the spectrometer for time-resolved singlet oxygen phosphorescence measurements involved the interposition of a Melles Griot cold mirror (03MCS005), which reflects more than 99% of the incident light in the 400–700 nm range, and of a Scotch RG665 filter. A 600 line diffraction grating was mounted in place of a standard one. […] Solutions of photosensitizers were prepared with matched absorbances close to 0.2 at 355 nm. […]

[4] = Singlet oxygen quantum yield by phosphorescence at 1270 nm; format: physicochemical; conditions: EtOH, phenalenone as reference
Description: as §1

[5] = n-Octanol/PBS partition coefficient, shake-flask; format: physicochemical; conditions: modified shake-flask
Description: The n-octanol/PBS partition coefficients were measured following shake-flask method with minor modifications. The photosensitizers were dissolved in n-octanol previously saturated with a solution of PBS. The same volume of PBS saturated with n-octanol was added and mixed on a vortex device and then the phases were separated by centrifugation. Next, the PBS/n-octanol phase was taken and diluted to obtain 0.5% of PBS/n-octanol content in the final solution. This solution was left into the ultrasonic bath. The fluorescence of each solution was measured using Fluorescence Spectrometer LS 55 (Perkin Elmer) and compared with calibration curve to obtain the concentration of the photosensitizer. Partition coefficients were calculated from the ratio coct/cPBS, where coct and cPBS are the concentrations of the porphyrin derivatives in the n-octanol and in the PBS.

[6] = target: HSA (Homo sapiens, UniProt P02768); experiment: Binding to HSA by fluorescence quenching (Stern-Volmer, Scatchard); conditions: for KSV (Stern-Volmer constant), HSA: HSA fluorescence quenching, PBS, room temperature; for n (number of binding sites), HSA: Scatchard analysis
Sequence of HSA (P02768 25-609): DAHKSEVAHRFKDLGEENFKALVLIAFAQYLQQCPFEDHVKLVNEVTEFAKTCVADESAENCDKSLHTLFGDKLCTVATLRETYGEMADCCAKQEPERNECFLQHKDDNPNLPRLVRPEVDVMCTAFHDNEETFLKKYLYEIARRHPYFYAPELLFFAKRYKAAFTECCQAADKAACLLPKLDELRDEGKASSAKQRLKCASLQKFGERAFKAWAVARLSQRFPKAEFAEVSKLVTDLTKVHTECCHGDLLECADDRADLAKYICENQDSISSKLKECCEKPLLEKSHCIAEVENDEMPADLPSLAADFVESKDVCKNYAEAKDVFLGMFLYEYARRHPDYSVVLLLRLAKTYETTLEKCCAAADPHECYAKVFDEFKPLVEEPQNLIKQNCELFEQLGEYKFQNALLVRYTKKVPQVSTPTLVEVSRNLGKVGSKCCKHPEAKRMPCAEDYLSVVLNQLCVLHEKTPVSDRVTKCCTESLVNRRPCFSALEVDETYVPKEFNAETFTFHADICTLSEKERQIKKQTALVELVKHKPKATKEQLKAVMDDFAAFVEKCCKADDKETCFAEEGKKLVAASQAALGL
Description: The binding of the PS to HSA was studied by spectrofluorometry at room temperature. An aqueous (phosphate buffer saline, PBS) solution of HSA was titrated with varying concentrations of the respective porphyrin solutions. HSA was excited at 295 nm and fluorescence was recorded between 300 nm and 400 nm. The systematic lowering of HSA fluorescence with increasing photosensitizer concentrations was noted and used in the determination of the binding constants and the number of binding sites on HSA according to Scatchard equation. The changes in HSA fluorescence intensity were related to porphyrin concentrations by the Stern-Volmer relationship. The binding constant (Kb) of PS to lipoproteins was also determined using the spectroscopic titration method. The sets of steady-state emission spectra of PBS solutions with different concentrations of HDL and LDL, to which the porphyrin (5 μM) was added were measured. The fluorescence intensity of the dye increased upon its partitioning into the lipoproteins. To obtain Kb, F versus [L] data were plotted and fitted to by a nonlinear regression routine.

[7] = tested on: E. coli (K12); experiment: Photodynamic inactivation of microorganisms, CFU; format: cell-based; conditions: PDI 10 J/cm^2, 420±20 nm, concentration not given
Description: (§2) The microorganisms used in PDI were: S. aureus (8325–4), E. faecalis (ATCC29212), E. coli (K12), P. aeruginosa (ATCC19660), S. marcescens (ATCC14756) and C. albicans (DAY286). The planctonic bacteria cells were cultured in brain heart infusion broth (Sigma-Aldrich) and LB Broth/Lennox (BioShop Lab Science Products) in an orbital incubator (37°C, 130 rpm), until the optical density reached 0.5, which corresponds to approximately 10^7 CFU per mL. The fungal yeasts were cultured in YPD Broth (BioShop) with overnight aeration at 30°C to reach ca. 10^6 CFU/mL. For PDI experiments cell suspensions of bacteria or fungal yeasts were incubated with various concentrations of the porphyrins at pH 7.4 (PBS) for 1 h in the dark at room temperature. Aliquots (1 mL) were transferred to a 12-well plate and illuminated with a blue light. We used blue-LED array (420±20 nm) to deliver a light dose of 10 J/cm^2 (measured with a power meter). Cells treated with photosensitizers in the dark were incubated covered with aluminum foil for the same time as the PDI groups (1 h). After illumination (or dark incubation) samples were shaken, diluted in PBS, mixed and plated (LB agar). Aliquots were taken from each well to determine the CFU value. Plates were streaked in triplicate and incubated for 12–36 h at 30 °C (for fungal yeasts) or 37 °C (for bacteria) in the dark to allow colony formation.

[8] = tested on: P. aeruginosa (ATCC19660); experiment: Photodynamic inactivation of microorganisms, CFU; format: cell-based; conditions: PDI 10 J/cm^2, 420±20 nm, concentration not given
Description: as §2

[9] = reference compound, in ethanol; cited from earlier work
[10] = Photodegradation (photostability) under xenon lamp irradiation; format: physicochemical; conditions: same irradiation conditions as in the biological studies
Description: The photostability of porphyrins was investigated following the measurement of their optical absorption in aqueous solutions. Continuous irradiation of an aerated solution were carried out using the xenon lamp (XBO-150) through the 10 cm water filter and bandpass filter transmitting within >400 nm range, delivering 75 mW/cm^2. The reaction progress was monitored by UV/Vis spectroscopy using a Hewlett Packard HP8453 spectrophotometer.

| SMILES | Absorption λmax, Qx (0,1) [2] [nm] | Absorption λmax, Qx(0,0) [2] [nm] | Absorption λmax, Qy (0,0) [2] [nm] | Absorption λmax, Qy (0,1) [2] [nm] | Absorption λmax, B(0,0) [2] [nm] | Fluorescence quantum yield ΦF [3] | Singlet oxygen quantum yield ΦΔ [4] | logP [5] | KSV (Stern-Volmer constant), HSA [6] | n (number of binding sites), HSA [6] | Decrease in survival / bacteria CFU killing [8] | also measured |
| --- | --- | --- | --- | --- | --- | --- | --- | --- | --- | --- | --- | --- |
| C1=Cc2nc1c(-c1ccccc1)c1nc(c(-c3ccccc3)c3ccc([nH]3)c(-c3ccccc3)c3ccc([nH]3)c2-c2ccccc2)C=C1 [TPP, tetraphenylporphyrin] |  |  |  |  |  |  |  |  |  |  |  | Fluorescence quantum yield ΦF [1]: 0.10 |
| O=S(=O)(O)c1ccc(Cl)c(-c2c3nc(c(-c4c(Cl)ccc(S(=O)(=O)O)c4Cl)c4ccc([nH]4)c(-c4c(Cl)ccc(S(=O)(=O)O)c4Cl)c4nc(c(-c5c(Cl)ccc(S(=O)(=O)O)c5Cl)c5ccc2[nH]5)C=C4)C=C3)c1Cl [Cl2POH, 5,10,15,20-tetrakis(2,6-dichloro-3-sulfophenyl)porphyrin] | 592 | 646 | 546 | 514 | 420 | 0.015 | 0.98 | -1.8 | 4.66 10^5M^-1 | 1 | 1.5–2 logs | Decrease in survival [7]: 1.5–2 logs |
| O=C1C=Cc2cccc3cccc1c23 [phenalenone] |  |  |  |  |  |  |  |  |  |  |  | Singlet oxygen quantum yield ΦΔ [9]: 0.95 ± 0.02 |
| CCNS(=O)(=O)c1ccc(Cl)c(-c2c3nc(c(-c4c(Cl)ccc(S(=O)(=O)NCC)c4Cl)c4ccc([nH]4)c(-c4c(Cl)ccc(S(=O)(=O)NCC)c4Cl)c4nc(c(-c5c(Cl)ccc(S(=O)(=O)NCC)c5Cl)c5ccc2[nH]5)C=C4)C=C3)c1Cl [Cl2PEt, 5,10,15,20-tetrakis(2,6-dichloro-3-N-ethylsulfamoylphenyl)porphyrin] | 592 | 646 | 546 | 514 | 418 | 0.017 | 0.85 | 1.84 | 6.62 10^5M^-1 | 1 | up to 3 logs |  |
| C=CC1=C(C)c2cc3[nH]c(cc4nc(cc5[nH]c(cc1n2)c(C)c5CCC(=O)O)C(CCC(=O)O)=C4C)c(C)c3C=C [PpIX] |  |  |  |  |  |  |  |  |  |  |  | Photostability (Soret band absorbance during irradiation) [10]: more prone to photooxidation |
